# Source: PubChem BioAssay AID1259407 (Chemical Carcinogenesis Research Information System (CCRIS), 2018)
# The source made the active and inactive calls. No rule for the calls is given here.
# System: CCRIS mutagenicity, Ames/micronucleus/aberration tests
# Assay: CCRIS mutagenicity studies
# [1] = Test System: AMES SALMONELLA TYPHIMURIUM, Strain/Indicator: TA98, Metabolic Activation: NONE, Method: STANDARD PLATE
# [2] = Test System: AMES SALMONELLA TYPHIMURIUM, Strain/Indicator: TA100, Metabolic Activation: NONE, Method: STANDARD PLATE
smiles,measurement,setting,value
O=C1c2ccccc2-c2c1c1ccccc1c(=O)n2CCNCCO,mutagenic call,"Test System: AMES SALMONELLA TYPHIMURIUM, Strain/Indicator: TA97, Metabolic Activation: NONE, Method: STANDARD PLATE",inactive; negative
same,mutagenic call,"Test System: AMES SALMONELLA TYPHIMURIUM, Strain/Indicator: TA97, Metabolic Activation: RAT, LIVER, S-9, PHENOBARBITAL AND ALPHA-NAPHTHOFLAVONE, Method: STANDARD PLATE",inactive; negative
same,mutagenic call,[1],inactive; negative
same,mutagenic call,"Test System: AMES SALMONELLA TYPHIMURIUM, Strain/Indicator: TA98, Metabolic Activation: RAT, LIVER, S-9, PHENOBARBITAL AND ALPHA-NAPHTHOFLAVONE, Method: STANDARD PLATE",inactive; negative
same,mutagenic call,[2],inactive; negative
same,mutagenic call,"Test System: AMES SALMONELLA TYPHIMURIUM, Strain/Indicator: TA100, Metabolic Activation: RAT, LIVER, S-9, PHENOBARBITAL AND ALPHA-NAPHTHOFLAVONE, Method: STANDARD PLATE",inactive; negative
same,mutagenic call,"Test System: AMES SALMONELLA TYPHIMURIUM, Strain/Indicator: TA1535, Metabolic Activation: NONE, Method: STANDARD PLATE",inactive; negative
same,mutagenic call,"Test System: AMES SALMONELLA TYPHIMURIUM, Strain/Indicator: TA1535, Metabolic Activation: RAT, LIVER, S-9, PHENOBARBITAL AND ALPHA-NAPHTHOFLAVONE, Method: STANDARD PLATE",inactive; negative
O=C(Nc1cccc(Br)c1)c1csc([N+](=O)[O-])c1,mutagenic call,[1],active; positive
same,mutagenic call,[2],active; positive
CN(C)CCNC(=O)c1cccc2ncc(-c3ccccc3)nc12,mutagenic call,"Test System: AMES SALMONELLA TYPHIMURIUM, Strain/Indicator: TA1537, Metabolic Activation: NONE, Method: STANDARD PLATE",active; positive
CNC(=O)CNC(=O)C=[N+]=[N-],mutagenic call,"Test System: UDS RODENT CELLS, Strain/Indicator: THY INCORP (NON-S-PHASE), Metabolic Activation: NONE, Method: AUTORADIOGRAPHY",active; positive
COC(=O)c1ccccc1O,mutagenic call,"Test System: AMES SALMONELLA TYPHIMURIUM, Strain/Indicator: TA98, Metabolic Activation: GUINEA PIG, LIVER, S-9, PCB, Method: PREINCUBATION",inactive; negative
same,mutagenic call,"Test System: AMES SALMONELLA TYPHIMURIUM, Strain/Indicator: TA98, Metabolic Activation: HAMSTER, LIVER, S-9, AROCLOR 1254 (30%), Method: PREINCUBATION",inactive; negative
same,mutagenic call,"Test System: AMES SALMONELLA TYPHIMURIUM, Strain/Indicator: TA98, Metabolic Activation: HAMSTER, LIVER, S-9, AROCLOR 1254 (50%), Method: PREINCUBATION",inactive; negative
same,mutagenic call,"Test System: AMES SALMONELLA TYPHIMURIUM, Strain/Indicator: TA98, Metabolic Activation: HAMSTER, LIVER, S-9, PCB, Method: PREINCUBATION",active; positive
same,mutagenic call,"Test System: AMES SALMONELLA TYPHIMURIUM, Strain/Indicator: TA98, Metabolic Activation: MOUSE, LIVER, S-9, PCB, Method: PREINCUBATION",inactive; negative
same,mutagenic call,"Test System: AMES SALMONELLA TYPHIMURIUM, Strain/Indicator: TA98, Metabolic Activation: NONE, Method: PREINCUBATION",inactive; negative
same,mutagenic call,"Test System: AMES SALMONELLA TYPHIMURIUM, Strain/Indicator: TA98, Metabolic Activation: RAT, LIVER, S-9, AROCLOR 1254 (30%), Method: PREINCUBATION",inactive; negative
same,mutagenic call,"Test System: AMES SALMONELLA TYPHIMURIUM, Strain/Indicator: TA98, Metabolic Activation: RAT, LIVER, S-9, AROCLOR 1254 (50%), Method: PREINCUBATION",inactive; negative
same,mutagenic call,"Test System: AMES SALMONELLA TYPHIMURIUM, Strain/Indicator: TA98, Metabolic Activation: RAT, LIVER, S-9, PCB, Method: PREINCUBATION",inactive; negative
same,mutagenic call,"Test System: AMES SALMONELLA TYPHIMURIUM, Strain/Indicator: TA100, Metabolic Activation: GUINEA PIG, LIVER, S-9, PCB, Method: PREINCUBATION",inactive; negative
same,mutagenic call,"Test System: AMES SALMONELLA TYPHIMURIUM, Strain/Indicator: TA100, Metabolic Activation: HAMSTER, LIVER, S-9, AROCLOR 1254 (30%), Method: PREINCUBATION",inactive; negative
same,mutagenic call,"Test System: AMES SALMONELLA TYPHIMURIUM, Strain/Indicator: TA100, Metabolic Activation: HAMSTER, LIVER, S-9, AROCLOR 1254 (50%), Method: PREINCUBATION",inactive; negative
same,mutagenic call,"Test System: AMES SALMONELLA TYPHIMURIUM, Strain/Indicator: TA100, Metabolic Activation: HAMSTER, LIVER, S-9, PCB, Method: PREINCUBATION",active; positive
same,mutagenic call,"Test System: AMES SALMONELLA TYPHIMURIUM, Strain/Indicator: TA100, Metabolic Activation: MOUSE, LIVER, S-9, PCB, Method: PREINCUBATION",inactive; negative
same,mutagenic call,"Test System: AMES SALMONELLA TYPHIMURIUM, Strain/Indicator: TA100, Metabolic Activation: NONE, Method: PREINCUBATION",inactive; negative
same,mutagenic call,"Test System: AMES SALMONELLA TYPHIMURIUM, Strain/Indicator: TA100, Metabolic Activation: RAT, LIVER, S-9, AROCLOR 1254 (30%), Method: PREINCUBATION",inactive; negative
same,mutagenic call,"Test System: AMES SALMONELLA TYPHIMURIUM, Strain/Indicator: TA100, Metabolic Activation: RAT, LIVER, S-9, AROCLOR 1254 (50%), Method: PREINCUBATION",inactive; negative
same,mutagenic call,"Test System: AMES SALMONELLA TYPHIMURIUM, Strain/Indicator: TA100, Metabolic Activation: RAT, LIVER, S-9, PCB, Method: PREINCUBATION",inactive; negative
same,mutagenic call,"Test System: AMES SALMONELLA TYPHIMURIUM, Strain/Indicator: TA1535, Metabolic Activation: HAMSTER, LIVER, S-9, AROCLOR 1254 (30%), Method: PREINCUBATION",inactive; negative
same,mutagenic call,"Test System: AMES SALMONELLA TYPHIMURIUM, Strain/Indicator: TA1535, Metabolic Activation: HAMSTER, LIVER, S-9, AROCLOR 1254 (50%), Method: PREINCUBATION",inactive; negative
same,mutagenic call,"Test System: AMES SALMONELLA TYPHIMURIUM, Strain/Indicator: TA1535, Metabolic Activation: NONE, Method: PREINCUBATION",inactive; negative
same,mutagenic call,"Test System: AMES SALMONELLA TYPHIMURIUM, Strain/Indicator: TA1535, Metabolic Activation: RAT, LIVER, S-9, AROCLOR 1254 (30%), Method: PREINCUBATION",inactive; negative
same,mutagenic call,"Test System: AMES SALMONELLA TYPHIMURIUM, Strain/Indicator: TA1535, Metabolic Activation: RAT, LIVER, S-9, AROCLOR 1254 (50%), Method: PREINCUBATION",inactive; negative
same,mutagenic call,"Test System: AMES SALMONELLA TYPHIMURIUM, Strain/Indicator: TA1537, Metabolic Activation: HAMSTER, LIVER, S-9, AROCLOR 1254 (30%), Method: PREINCUBATION",inactive; negative
same,mutagenic call,"Test System: AMES SALMONELLA TYPHIMURIUM, Strain/Indicator: TA1537, Metabolic Activation: HAMSTER, LIVER, S-9, AROCLOR 1254 (50%), Method: PREINCUBATION",inactive; negative
same,mutagenic call,"Test System: AMES SALMONELLA TYPHIMURIUM, Strain/Indicator: TA1537, Metabolic Activation: NONE, Method: PREINCUBATION",inactive; negative
same,mutagenic call,"Test System: AMES SALMONELLA TYPHIMURIUM, Strain/Indicator: TA1537, Metabolic Activation: RAT, LIVER, S-9, AROCLOR 1254 (30%), Method: PREINCUBATION",inactive; negative
same,mutagenic call,"Test System: AMES SALMONELLA TYPHIMURIUM, Strain/Indicator: TA1537, Metabolic Activation: RAT, LIVER, S-9, AROCLOR 1254 (50%), Method: PREINCUBATION",inactive; negative
O=c1[nH]c2c(c(=O)n1C1CCCCC1)CCC2,mutagenic call,"Test System: AMES SALMONELLA TYPHIMURIUM, Strain/Indicator: TA97, Metabolic Activation: RAT, LIVER, S-9, AROCLOR 1254, Method: STANDARD PLATE",inactive; negative
same,mutagenic call,"Test System: AMES SALMONELLA TYPHIMURIUM, Strain/Indicator: TA97, Metabolic Activation: RAT, LIVER, S-9, AROCLOR 1254 AND NADPH, Method: STANDARD PLATE",inactive; negative
same,mutagenic call,"Test System: AMES SALMONELLA TYPHIMURIUM, Strain/Indicator: TA98, Metabolic Activation: RAT, LIVER, S-9, AROCLOR 1254, Method: STANDARD PLATE",inactive; negative
same,mutagenic call,"Test System: AMES SALMONELLA TYPHIMURIUM, Strain/Indicator: TA98, Metabolic Activation: RAT, LIVER, S-9, AROCLOR 1254 AND NADPH, Method: STANDARD PLATE",inactive; negative
same,mutagenic call,"Test System: AMES SALMONELLA TYPHIMURIUM, Strain/Indicator: TA100, Metabolic Activation: RAT, LIVER, S-9, AROCLOR 1254, Method: STANDARD PLATE",inactive; negative
same,mutagenic call,"Test System: AMES SALMONELLA TYPHIMURIUM, Strain/Indicator: TA100, Metabolic Activation: RAT, LIVER, S-9, AROCLOR 1254 AND NADPH, Method: STANDARD PLATE",inactive; negative
same,mutagenic call,"Test System: AMES SALMONELLA TYPHIMURIUM, Strain/Indicator: TA102, Metabolic Activation: RAT, LIVER, S-9, AROCLOR 1254, Method: STANDARD PLATE",inactive; negative
same,mutagenic call,"Test System: AMES SALMONELLA TYPHIMURIUM, Strain/Indicator: TA102, Metabolic Activation: RAT, LIVER, S-9, AROCLOR 1254 AND NADPH, Method: STANDARD PLATE",inactive; negative
